Laboratory results as given in publication PMC3514216, “SRC Homology 2 Domain Binding Sites in Insulin, IGF-1 and FGF receptor mediated signaling networks reveal an extensive potential interactome” (Cell Communication and Signaling : CCS, 2012).

Tested on: panel of 50 SH2 domains
Assay: SPOT peptide array probed with each of 50 GST-SH2 domains
Assay type: binding
Conditions: SPOT192 peptide array; for SH2 Domains >3X: list of GST-SH2 domains with spot intensity >3X array mean (array-positive); for 2X < SH2 Domains < 3X: list of GST-SH2 domains with spot intensity between 2X and 3X array mean (indeterminate range)
From the text: The use of addressable peptide arrays is a reproducible and semi-quantitative approach that has been extensively validated for studying protein interactions with peptide ligands. To investigate connections between SH2 domain proteins and their putative phosphorylated docking sites on cell surface receptors, we developed addressable arrays consisting of 192 phosphotyrosine peptides. This peptide set was assembled using 71 phosphotyrosine peptide motifs corresponding to all of the cytoplasmic tyrosine residues within the FGF receptors (FGFR1-4), insulin receptor (InsR) and IGF-1 receptor (IGF-1R) (Figure 1A). Activation of these receptors results in the phosphorylation of associated scaffold proteins, and so 75 phosphotyrosine peptides corresponding to a comprehensive list of tyrosine residues within insulin receptor substrates (IRS-1 and IRS-2) and fibroblast receptor substrates (FRS-2 and FRS-3) were included. In addition, 33 phosphotyrosine peptides were incorporated from the downstream signaling proteins PLC-γ1, p130Cas (BCAR1) and p62DOK1. […] These control peptides provide a reference and establish the empirical cut-off for designated binding interactions (Table 1). No discrimination was made against peptides on the basis of reported phosphorylation state in order to examine a diverse and unbiased set of motifs. The resulting set of 192 phosphotyrosine peptides and their corresponding position in the proteins of origin is noted in Additional file 1: Table S1. Addressable arrays were synthesized as membrane-bound 11-mer peptides using the SPOT synthesis technique. While the majority of SH2 domains recognize residues C-terminal to the phosphotyrosine in their cognate peptide ligands, additional contacts between SH2 domains and residues N-terminal to the phosphotyrosine are observed for the SH2 domain of Sh2d1a (SAP) and cannot be ruled out in other cases. Peptides were synthesized with six flanking residues C-terminal to the phosphotyrosine and four residues N-terminal to the phosphotyrosine.
To assess the potential network of SH2 domain interactions we selected 50 SH2 domains representing 28 of the 38 families of SH2 domains (Figure 1B) all of which we have previously shown can be expressed and purified. These include a number of extensively studied SH2 domains (Src, Grb2, PLCγ), as well as a number of less studied SH2 domains from proteins such as Shd, She, Shf, Slnk (Sh2d6), Sh2d1a (SAP), Sh2d1b (Eat-2), and Brdg1. To address potential variability in specificity within families we employed all members from the SHB, CRK, GRB2, SRC and ABL families (families are indicated with complete Capitalized lettering).
SH2 domains were arrayed as GST fusion proteins and detected using anti-GST primary antibodies and near-infrared labeled secondary antibodies. In an effort to present a dataset with minimal false positives, we chose an empirical cutoff based on the array average across all peptide spots to classify interactions (Figure 1A). In cases where the intensity of the signal for an individual SH2-domain binding event exceeded the mean intensity of all the peptides on the membrane by three-fold were scored as “array positives” [22]. Non-binding was judged in cases where the intensity of a spot was less than the mean intensity of all spots on the membrane and these were scored as “array negatives”. Peptides with signal intensities between 1X and 3X mean were scored as “indeterminate” and ascribed as neither array positive binding interactions nor array-negative non-binders. […] This signature may be indicative of promiscuity differences between phosphopeptides or there may be a subset of peptides which interact in a nonspecific fashion with either the GST fusion tag or one of the antibodies used for detection, resulting in false positives. […]

Substance	SH2 Domains >3X	2X < SH2 Domains < 3X
VSFYpYSEENKP [B16]	ABL1, BCAR3	ABL2, MATK
RLEYpYESEKKW [D01]	SH3BP2	BRDG1, FER, MIST, PTPN11_C, Sh2b, SH2D1B
WDTGpYDSDERR [G03]	SH3BP2, SRC	DAPP1, FER, HCK, ZAP70_N
KEEGpYELPYNP [H21]	ABL1, ABL2, BLK, BRK, FGR, FYN, HCK, ITK, LCK, LYN, NCK1, PI3K1_N, RASA1_N, RASA1_C, RIN1, SH2D1B, SHC1, SHIP1, SRC, VAV1, YES	FER, GRB7
PQDIpYDVPPVR [H11]	CRK, CRKL, NCK1, SHIP1, ZAP70_N	FGR, FYN, LCK, LYN
PGLEpYCYNPSH [E09]	ABL1, GRB7, ZAP70_N	
RQLNpYIQVDLE [G09]	BCAR3, BMX, BRDG1, DAPP1, ITK, MIST, PLCG2_C, PTPN11_N, RASA1_N, SHB, SHF, SHD, SHE, SYK_C, VAV1, ZAP70_N	PTPN11_C, Sh2b
ADNDpYIIPLPD [A07]	BRK, DAPP1, PLCG2_N, PLCG2_C, SRC, VAV1	HCK, LCK, LYN, PI3K1_N, RIN1, SH2D1B, YES
VIVEpYASKGNL [E07]		BCAR3
KKPLpYWDLYEH [H17]	ABL1, BCAR3, BMX, CRKL, DAPP1, GRB7, ITK, MATK, PLCG2_N, PLCG2_C, RASA1_N, RASA1_C, SH2D2A, SH3BP2, TENC1	PI3K1_C, Sh2b
PGLDpYSFDTCK [F09]	ABL1, CRK, CRKL, HCK, GRB7, SHIP1, SRC, ZAP70_N	FGR, SHC1
EDLSpYGDVPPG [B23]	ABL1, BRK, FGR, FYN, LCK, LYN, SH2D1B, SHC1, SHIP1, SLNK, YES	BLK, HCK, GRB7
PNGHpYILSRGG [C02]	BRDG1, CRK, DAPP1, MIST, PTPN11_C, RASA1_C, SHB, SHF, SHD, SYK_C, TENC1	BCAR3, BMX, FER, PLCG2_N, Sh2b, SHE
NGLNpYIDLDLV [C22]	BCAR3, ITK, PLCG2_C, PTPN11_N, RASA1_N, Sh2b, SHB, SHF, SHD, SHE, TENC1	DAPP1, FGR, LCK, LYN, RASA1_C, SYK_C, YES
FKRSpYEEHIPY [B05]	SHB, SHF, SHD, SHE	BRDG1, TENC1
VSEEpYLDLRLT [F18]	BMX, RASA1_N, SHB, SHD	
RGMEpYLASQKC [E24]	BRDG1, SHF	BCAR3, PLCG2_N, PLCG2_C, SHB, SHD, ZAP70_N
DSDQpYVLMSSP [D23]	FYN, LYN, PI3K1_N, PI3K1_C, SHIP1	BLK, FGR, LCK, SH2D1B
EGPLpYVIVEAA [F13]	ITK, MATK, PLCG2_N, RASA1_N, SYK_C	ABL2, PLCG2_C, PTPN11_N, SH2D1B
GTEEpYMKMDLG [C18]		PI3K1_C
NPGNpYTARIQA [B08]	BRDG1, MIST, PLCG2_N, PTPN11_C, SHF, SHD, SYK_C	DAPP1, Sh2b, SH3BP2, SHB, SHE

Substance	SH2 Domains >3X	2X < SH2 Domains < 3X
QDSLpYSDPLDS [H16]	ABL1, FYN, HCK, LCK, LYN, NCK1, RASA1_C, SRC, ZAP70_N	BLK, FGR, SHIP1
SLTIpYAQVQKA [A08]	BCAR3, BMX, BRDG1, FER, MATK, SH2D1B, TENC1	MIST, PI3K1_N, PTPN11_N, PTPN11_C, RIN1, Sh2b, SHC1, SHD, SYK_C
DPMPpYEPALPQ [F05]	FYN, LYN, SHIP1, YES	FGR, LCK, SH2D1B, SHC1
LVALpYTRDEHF [B21]		SH2D2A
MCKVpYSDPQPH [E02]	CRKL	
TKDEpYFAVAAE [D04]		SH2D1B
TDDGpYMPMSPG [C06]	HCK, PI3K1_C, SRC	FYN
WMEDpYDYVHLQ [H12]	BCAR3, BMX, BRK, CRK, CRKL, DAPP1, FER, GRB7, ITK, MATK, NCK1, PI3K1_N, PLCG2_N, RASA1_N, RASA1_C, RIN1, SH3BP2, TENC1	ABL1, BLK, FYN, HCK, LCK, LYN, PLCG2_C, SH2D1B, SHB, SHC1, SHIP1, SRC
TFGPpYSPSGGD [F19]		ZAP70_N
PVLSpYYSLPRS [C12]	CRK, CRKL, Sh2b, SYK_C	BRDG1, SHF
SIEEpYTEMMPA [C03]	BRK, SHC1	BLK, FER, FGR, LCK, PI3K1_C
DGMApYLNAKKF [A23]	BCAR3, BMX, BRDG1, FER, GRB2, MIST, PTPN11_N, PTPN11_C, RIN1, Sh2b, SHF, SHD, TENC1	BRK, DAPP1, FGR, ITK, MATK, PI3K1_N, PI3K1_C, PLCG2_N, PLCG2_C, SH3BP2, SHB, SHE, YES
SSDSpYAVIDLK [G15]	SH2D1B, SHC1, SHIP1	HCK
NSALpYSQVQKS [H24]	BCAR3, BRDG1, CRK, CRKL, PTPN11_C, SH2D1B, SHC1, SHIP1	ABL2, BMX, FER, PTPN11_N, RIN1
SQVNpYRVPNMR [G16]	BCAR3, BRDG1, MIST, PLCG2_N, SHF, TENC1	BMX, CRKL, PLCG2_C
PFEQpYSPGGQD [F12]		ZAP70_N
RRYGpYDSNLFS [F23]	ABL1, BCAR3, BMX, BRDG1, CRK, CRKL, FER, MATK, SHB, SHD, TENC1	PLCG2_N, PTPN11_C, SH2D2A, SHF
LPNGpYPRYPSF [F24]	BRDG1, GRAP, GRB2, MIST, PTPN11_C, Sh2b, SHB, SHF	BCAR3, BMX, PLCG2_N, PLCG2_C, SHD, SYK_C, TENC1
EVSFpYYSEENK [B15]	DAPP1, ITK, PLCG2_C, RASA1_C, Sh2b, SHB, SHE, SYK_C, VAV1	ABL1, BLK, MATK, RASA1_N
PVFFpYVQAKTG [B09]	BRDG1, MIST, Sh2b, SYK_C	BCAR3, RASA1_C, SHF, TENC1
VFTTpYSDVWSF [B13]	ABL1, ABL2, BRK, ITK, RASA1_N, RASA1_C, RIN1, SH2D1B, SH2D2A, SHC1	BCAR3, CRK, NCK1, PI3K1_N, SHIP1

Substance	SH2 Domains >3X	2X < SH2 Domains < 3X
LEYCpYNPSHNP [E10]	GRB7	
PMHNpYVNTENV [G07]	GADS, GRAP, GRB2, SH3BP2	PI3K1_C, VAV1
SNPEpYLSASDV [A19]	VAV1	
AYHPpYPEDYGD [D16]	BMX	MATK, SLNK
RKRTpYSLTTPA [D13]	BCAR3, BRDG1, ITK, PLCG2_N, TENC1	BMX, BRK, MIST, SHB, SHF
PLSDpYMNLDFS [D24]	GADS, GRAP, GRB2, RASA1_N, SYK_C	ABL1, GRB7, PI3K1_C, PLCG2_N, RASA1_C
AEPQpYEEIPIY [A10]	BLK, BRK, FER, FGR, HCK, LYN, NCK1, PLCG2_C, SHC1, SRC, YES	ABL1, BMX, DAPP1, FYN, LCK, RIN1, SH2D1B, SRC
ELILpYTRKRDS [F20]	BCAR3, BRDG1, MIST, PLCG2_N, SHF, TENC1	BMX, DAPP1, PLCG2_C, PTPN11_C, RASA1_C, SHB, SHD
PKCTpYENVTGG [G13]	GADS, GRB2, GRB7, SH3BP2	GRAP, MIST
YKAPpYTAGGDS [D22]	MIST	
VNPEpYFSAADV [B12]		Sh2b
GDITpYGQFAQL [G17]		GRB7
VKWHpYLALRRY [F21]	BCAR3, BMX, BRDG1, BRK, DAPP1, FER, GRB2, MATK, MIST, PI3K1_N, PI3K1_C, PLCG2_N, PLCG2_C, PTPN11_N, PTPN11_C, RIN1, Sh2b, SH3BP2, SHB, SHF, SHD, TENC1	FGR, ITK, RASA1_C, SH2D2A, SHE, SYK_C
YGALpYEGRNPG [H02]		SH3BP2, ZAP70_N
SGTSpYGKLWTN [C08]	BCAR3, BMX, BRDG1, CRK, FER, MIST, PTPN11_C, SH2D1B, SHC1, SHF, SYK_C, TENC1	CRKL, DAPP1, GADS, ITK, MATK, PLCG2_C, PTPN11_N, RIN1, Sh2b, SH3BP2, SHB, SHD, SHE, YES
YVTDpYLDVPSN [A16]	SLNK	BRK, RASA1_N
EDDGpYDVPKPP [A03]	CRK, CRKL, FGR, HCK, SHIP1, SRC, YES	ABL1, BLK, FYN, LYN
RGMQpYLESRKA [F15]	BCAR3, BRDG1, TENC1	BMX, ITK, MIST, PLCG2_N, PLCG2_C, SHF
EDPIpYDEPEGL [H19]	ABL1, BLK, HCK, NCK1, SHC1, SLNK, SRC	BMX, LCK, LYN, YES
WYPHpYFVLTSS [G24]	ABL2, CRK, CRKL, ITK, MATK, MIST, PI3K1_C, PTPN11_C, SH2D1B, SHD, SHIP1, ZAP70_N	BCAR3, GRB7, SHC1
